The target in one assay is T1, recombinant CK2 (Homo sapiens, UniProt P68400).
T1 construct: purchased Upstate Biotechnology 17-132 (number of the activity kit, not of the enzyme)
Kind of assay: Casein kinase 2 activity kit, 32P incorporation into substrate peptide. It is filed as biochemical. Here is the method:
FIGS. 5A-5B are bar graphs showing that LY303511 inhibits the cell cycle by causing combined G1 and G2/M arrest and that LY303511 inhibits CK2 activity. For the data shown in FIG. 5A, PASM cells were cultured in medium with FBS for 48 hours before the addition of 0-100 μM LY303511 without or with raparnycin, 400 ng/ml, for 24 hours. Cells were then harvested and incubated with propidium iodide for 2 hours before counting using a Becton-Dickson FACSCalibur. Data are the means (±SEM) of percentages of cells in G1, S, or G2/M phase of the cell cycle in three experiments with duplicate assays. *p<0.05 vs. DMSO control, or †p<0.05 vs. 10 μM LY303511, by Student's t—test. FIG. 5B is a bar graph showing that LY303511 or LY294002 inhibits CK2 in vitro. As per the manufacturer (Upstate Biotechnologies), 0 or 100 ng of recombinant CK2 were incubated with CK2 substrate peptide and ^32P-γ-ATP for 10 min with 1% DMSO or inhibitors as indicated. Data are the means of values for samples with inhibitors expressed as percentage of that for control, which was (mean±SEM) 0.2±0.03 pmol phosphate/100 ng protein/10 min. Data are from three experiments performed in duplicate. *p<0.05 by Student's t-test when compared to DMSO control.
One specific assay for casein kinase 2 activity is available commercially as a kit from Upstate Biotechnology (New York). The assay is based on phosphorylation of a specific substrate (CK-2 substrate peptide) using the transfer of the gamma-phosphate of ^32P-ATP by casein kinase 2 during a 10 minute incubation at 30° C. The phosphorylated substrate is then separated from the residual ^32P-ATP using P81 phosphocellulose paper, and quantified by scintillation counting.
Casein kinase 2 (CK2) activity (counts per rninute) was measured using a casein kinase 2 activity kit (Upstate Biotechnology catalogue number 17-132) by incubating recombinant 100 ng CK2, magnesium/ATP cocktail (10 mcCi ^32P-garnma-ATP, 0.675 micromoles MgCl2, 4.5 nmoles ATP), and 10 micromoles peptide substrate (arnino acid sequence RRRDDDSDDD (SEQ ID NO: 1) in 50 mcl assay buffer without or with the indicated concentrations of DMSO (1%), LY294002, LY303511, or rapamycin for 10 minutes at 30° C. Assays were stopped with 20 mcl of 40% trichloroacetic acid, and 25 mcl were spotted on P81 phosphocellulose paper squares before washing 3 times with 0.75% phosphoric acid, and once with acetone. 32P incorporation on the substrate peptide was detected by counting the phosphocellulose squares in 5 ml scintillation fluid using a Packard 100 Tri-Carb liquid scintillation counter.
Measurement of casein kinase 2 (CK2) activity: CK2 activity (counts per minute) was measured using a CK2 activity kit (Upstate, Charlottesville, Va.) by incubating 100 ng of recombinant CK2, rnagnesium/ATP cocktail (10 μCi ^32P-gamma-ATP, 0.675 μmol MgCl2, 4.5 nmol ATP), and 10 μmol peptide substrate (amino acid sequence RRRDDDSDDD) in 50 μl assay buffer (20 mM MOPS, pH 7.2, 5 mM EGTA, 25 mM β-glycerol phosphate, 1 mM sodium orthovanadate, 1 mM dithiothreitol) without or with the indicated concentrations of LY294002, LY303511, wortmannin or rapamycin in 1% DMSO for 10 min at 30° C. Assays were stopped with 20 μl of 40% trichloroacetic acid, and samples (25 μl) of supernatant were applied to P81 phosphocellulose paper squares, which were then washed three times with 0.75% phosphoric acid, and once with acetone. ^32P in the substrate peptide was quantified using a Packard 100 Tri-Carb liquid scintillation counter on phosphocellulose squares in 5 ml of scintillation fluid. Activity is expressed as pmol phosphate incorporated per 10 minutes. CK2 activity measured in the presence of inhibitors was divided by that measured for the DMSO control (=100% control).

The test system of another assay is A549 cells. The assay is described as follows: A549 cell count after 24 hours with inhibitors. In kind it is cell-based, human. Conditions: 100 μM LY303511, rapamycin 200 ng/ml, 200 nM wortmannin, 100 μM LY294002. Here is the method: FIG. 2A is a bar graph showing LY303511 blocks cell proliferation, DNA synthesis, and cell cycle progression in A549 cells. A. A549 cells (80,000 cells per 35-mm dish) were grown for 1 day in medium with FBS before the addition of 0.1% DMSO, 100 μM LY303511, rapamycin, 200 ng/ml, 200 nM wortmannin, or 100 μM LY294002 for 24 hours. Cells were then incubated with trypsin, collected, and counted. Data are the means of cells/well×10^−4 ±SEM from duplicate assays in three experiments. *p<0.05 by Student's t-test. FIG. 2B is a line graph from results obtained when A549 cells (4,000 per well) in 96-well plates were grown in medium with FBS for 24 h before the addition of […] plus 0-200 μM LY303511 without or with rapamycin, 200 ng/ml, or with rapamycin alone (0-200 ng/ml). BrDU incorporation (absorbance at 490/465) was measured by in situ ELISA as per the manufacturer's instructions (BrDU detection kit, Roche). For each experiment, BrDU in cells incubated with inhibitors was expressed as a percentage of that in cells treated with 0.2% DMSO control (% control). Mean absorbance measures for controls=100% in each experiment were 0.9±0.3, 0.8±0.3, and 0.8±0.3. […]
Additionally, A549 cells (80,000 cells per well), were grown for 24 hours before addition of inhibitors (FIG. 2A). After 24 hours, trypan blue-stained cells were counted using a hemocytometer. […]

T1 sequence (P68400 whole entry): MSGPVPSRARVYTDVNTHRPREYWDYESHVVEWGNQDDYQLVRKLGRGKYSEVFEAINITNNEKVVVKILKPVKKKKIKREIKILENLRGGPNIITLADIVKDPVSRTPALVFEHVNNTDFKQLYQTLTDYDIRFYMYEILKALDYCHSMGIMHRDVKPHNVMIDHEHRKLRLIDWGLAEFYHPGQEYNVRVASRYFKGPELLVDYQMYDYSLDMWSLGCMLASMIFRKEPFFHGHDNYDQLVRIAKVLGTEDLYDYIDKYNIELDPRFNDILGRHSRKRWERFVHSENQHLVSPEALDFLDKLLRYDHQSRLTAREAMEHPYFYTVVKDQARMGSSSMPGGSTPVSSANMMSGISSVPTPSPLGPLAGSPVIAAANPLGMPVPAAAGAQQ
T1 sequence (P67870 2-215 partner limits assumed): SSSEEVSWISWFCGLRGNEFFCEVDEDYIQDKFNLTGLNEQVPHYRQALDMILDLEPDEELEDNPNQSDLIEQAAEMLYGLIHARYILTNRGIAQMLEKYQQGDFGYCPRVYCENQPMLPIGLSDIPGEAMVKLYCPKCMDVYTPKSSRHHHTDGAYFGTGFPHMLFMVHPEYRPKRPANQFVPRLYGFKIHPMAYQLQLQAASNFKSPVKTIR

Turning to `O=c1cc(N2CCNCC2)oc2c(-c3ccccc3)cccc12` [LY303511, 2-(4-piperazinyl)-8-phenyl-4H-1-benzopyran-4-one], on recombinant CK2 (100 ng recombinant CK2, 10 min at 30° C.), the CK2 activity entry is given as “concentration-dependent inhibition of CK2 activity”. The “preferential inhibition as compared to PI3K” value on recombinant CK2 (P70 S6 kinase and casein kinase 2 versus PI3K) was “preferentially inhibits P70 S6 kinase and casein kinase 2 as compared to PI3K”. Further, at recombinant CK2 (recombinant CK2 in vitro, read-out: IC50 for casein kinase 2), the IC50 (as a rule, the concentration that gives 50% inhibition) fell in the range of 10 to 100 µM. Further, the “cell proliferation (cell number)” value in the assay with A549 cells is listed as “significant inhibitory effect”.

Values taken from patent US8044057B2, “Methods for suppressing an immune response or treating a proliferative disorder” (The United States of America as represented by the …, priority 2003, dated 2011).
